Assay results from the NIST ThermoML archive (doi:10.1016/j.jct.2016.10.039).

Experiment: mn = molality of the nth substance listed, in mol/kg
Conditions: 298.15 K, 85 kPa, Liquid, Alternating current cell with electrodes

CCCCCCCCCCCCn1cc[n+](C)c1.[Br-] [1-dodecyl-3-methylimidazolium bromide] + O
Conditions | electrical conductivity [S/m]
m1 = 0.00123 | 0.0086
m1 = 0.00244 | 0.0169
m1 = 0.00361 | 0.0251
m1 = 0.00476 | 0.0331
m1 = 0.00588 | 0.0411
m1 = 0.00698 | 0.0489
m1 = 0.00805 | 0.0567
m1 = 0.00909 | 0.0644
m1 = 0.01011 | 0.0702
m1 = 0.01111 | 0.0736
m1 = 0.01209 | 0.0764
m1 = 0.01304 | 0.0788
m1 = 0.01398 | 0.0814
m1 = 0.01489 | 0.0836
m1 = 0.01579 | 0.0856
m1 = 0.01667 | 0.0877
m1 = 0.01753 | 0.0898
m1 = 0.01837 | 0.0918
m1 = 0.01919 | 0.0938
m1 = 0.02 | 0.0957
m1 = 0.02079 | 0.0977
m1 = 0.02157 | 0.0997

CCCCCCCCCCCC[N+](C)(C)C.[Br-] [dodecyltrimethylammonium bromide] + O
Conditions | electrical conductivity [S/m]
m1 = 0.00185 | 0.0125
m1 = 0.00366 | 0.0246
m1 = 0.00542 | 0.0367
m1 = 0.00714 | 0.0487
m1 = 0.00882 | 0.0609
m1 = 0.01047 | 0.0731
m1 = 0.01207 | 0.0856
m1 = 0.01364 | 0.0976
m1 = 0.01517 | 0.108
m1 = 0.01667 | 0.116
m1 = 0.01813 | 0.121
m1 = 0.01957 | 0.125
m1 = 0.02097 | 0.128
m1 = 0.02234 | 0.132
m1 = 0.02368 | 0.135
m1 = 0.025 | 0.138
m1 = 0.02629 | 0.141
m1 = 0.02755 | 0.145
m1 = 0.02879 | 0.148
m1 = 0.03 | 0.151
m1 = 0.03119 | 0.154
m1 = 0.03235 | 0.157
m1 = 0.0335 | 0.16

O [water] + CCCCCCCCCCCC[N+](C)(C)C.[Br-]
Conditions | electrical conductivity [S/m]
m2 = 0 | 0.00021

O [water] + CCCCCCCCCCCCn1cc[n+](C)c1.[Br-]
Conditions | electrical conductivity [S/m]
m2 = 0 | 0.00024
